Test results as given in patent publication US8404660B2, “Method of obtaining of 4-N-furfurylcytosine and/or its derivatives, an anti-aging composition and use of 4-N-furfurylcytosine and/or its derivatives in the manufacture of anti-aging composition” (Instytut Chemii Bioorganicznej Pan, priority 2007, dated 2013).
Entries after “also recorded” stand apart in the source; their conditions may differ.

Columns and labels:
GAPDH [1] = assay: RT/PCR analysis of GAPDH gene expression in fibroblast cells; assay type: cell-based; settings: fibroblast cells cultured 5 weeks with 100 μM FC; phosphoimager analysis
Description: To confirm this observation total RNA was isolated and RT/PCR was perform to analyzed total GAPDH gene expression as a result of condition of cells survival (FIG. 2B) The phosphoimager analysis was performed to determined differences in GAPDH expression in fibroblast cells. We observed that it is 72% lower in FC treated cells in comparison to the control (FIG. 2C).
(§1) Total RNA from cells was isolated using TRIZOL reagent (Invitrogen). Samples for analyses of gene expression were prepared from cultured Hela and fibroblast cells Aliquots (1×10^6 cells) were removed and homogenized in TRIZOL reagent (Invitrogen). Total RNA was then chloroform extracted and precipitated using iso-propanol and ethanol. Reverse transcription was carried out using: 2 μg RNA, random primer and RevertAid™ H Minus M-MuLV reverse transcriptase (Fermentas) according to the manufactures instructions. The resultant cDNA was amplified with primers complementary to the glyceraldehyde-3-phosphate dehydrogenase, GAPDH (G1: GGGTGGAGCCAAACGGGTC, G2: […]) PCR reaction was initiated with denaturation at 94° C. for 2 min, annealing at 55° C. for 1 min, extension at 72° C. for 30 sec, followed by 30 cycles. Equal volumes of amplified products were electrophoresed on 1 agarose gel and stained with ethidium bromide.
Differences in expression level were determined using Phosphoimager and ImageQant program.

GAPDH [2] = assay: RT-PCR analysis of GAPDH gene expression in HeLa cells (internal control); assay type: cell-based; settings: 100 μM FC, 24 hours, vs untreated control
Description: In other test, we have analyzed influence of FC on the specific gene expression. In this case it was DNMT-1. Effect of FC on DNMT-1 expression was check in HeLa cells after 24 hours (FIG. 3A).
(§2) HeLa and fibroblast cells are routinely maintained in this laboratory. Fibroblast cells were grown in Optimem medium supplemented with 10% fetal calf serum and antibiotics, HeLa cells were grown in RPMI 1640 supplemented with 10% fetal calf serum and antibiotics (penicillin 100 U/ml and streptomycin 100 ug/ml). All cell lines were incubated in a humidified atmosphere with 5% CO2 in air at 37° C.
as §1, with “Equal volumes of amplified products were electrophoresed on 1 agarose gel and stained with ethidium bromide.” left out

[3] = solubility observed during purification; assay type: physicochemical
Description: The second step was the reaction of furfurylamine (FIG. 1 V) with 4-N-p-toluenesulfonyl-2′-deoxycytidine (FIG. 1 I). The third step was depended on creating of 4-N-furfurylcytosine (FIG. 1 III), by cleavage of N-glycosyl bond by solution of inorganic acid in water (pH of this solution was about 3).
In this reason, purify on the column was performed in warm water (40-45° C.). The column was referred by aluminium foil, because the decrease temperature of water was carried out to precipitate of the product on the gel. The purification of the product was performed two times, because acid degradation of ribose gave a lot of byproducts, obstructed purification. The main product was eluted in 0.1% warm water solution of methanol. When the temperature of solvent was higher than 45° C., the product could elute earlier. The 4-N-furfurylcytosine was crystallized in water, gave colorless crystals, which form thin needles.

fibroblast cells = assay: cytotoxic effect of FC on fibroblast cell viability, long-term culture; assay type: cell-based; settings: 100 μM FC, vs untreated control
Description: It was observed much less living cells and after 5 weeks they are clearly death (FIG. 2A).
as §2
There 1×10^6 cells on 6-well plates were used to study the cytotoxicity area of FC on cell growth in the presence or absence of FC.

**Q.** For `O=c1nc(NCc2ccco2)cc[nH]1` [FC, 4-N-furfurylcytosine], which “GAPDH expression lower in FC treated cells in comparison to the control” value (GAPDH [1]) is on record?
**A.** The value was 72%.

**Q.** What about the GAPDH expression level (GAPDH [2]) of the same molecule?
**A.** Its GAPDH expression level is “stable and similar”.

**Q.** And the solubility in solvents ([3]; all solvents)?
**A.** Its solubility in solvents is “low solubility”.

**Q.** What about the solubility in water ([3]; water, increases with temperature) of the same molecule?
**A.** Its solubility in water is “best solubility”.

**Q.** And the fibroblast cell viability (fibroblast cells; after 3 weeks of culture)?
**A.** The fibroblast cell viability was “decreases in cell viability”.

**Q.** And the “fibroblast cell viability / cytotoxic effect” value (fibroblast cells; after 5 weeks of culture)?
**A.** The value was “clearly death; also recorded: cytotoxic effect”.
